Structures are written as SMILES. Where “and” joins values, the source holds several entries; their conditions need not be identical. Equal values may be shown once.

In the test the target is T1, receptor interacting protein kinase 1 (GST-hRIPK1 (8-327)) (Homo sapiens, UniProt Q13546).
T1 construct: GST-hRIPK1 (8-327) enzyme was generated by Proteros GmbH by Baculovirus expression system
T1 sequence (Q13546 8-327): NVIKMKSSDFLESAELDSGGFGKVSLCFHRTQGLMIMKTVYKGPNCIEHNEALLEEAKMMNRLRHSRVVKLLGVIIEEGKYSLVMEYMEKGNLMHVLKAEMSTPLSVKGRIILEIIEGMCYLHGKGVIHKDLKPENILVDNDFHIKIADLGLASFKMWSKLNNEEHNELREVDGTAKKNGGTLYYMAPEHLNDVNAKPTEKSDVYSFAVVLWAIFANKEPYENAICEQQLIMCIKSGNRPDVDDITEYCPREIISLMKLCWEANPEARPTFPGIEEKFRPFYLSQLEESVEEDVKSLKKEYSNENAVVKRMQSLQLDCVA
The test can be described thus: Fluorescent Polarization Binding (FP Binding) assay. As to conditions: 10 nM GST-hRIPK1 (8-327), 5 nM fluorescent-labeled ligand, 30 min at RT. The essentials: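 Displacement of 5 nM fluorescent ligand from 10 nM GST-hRIPK1 (8-327), 30 min at room temperature in pH 7.5 HEPES buffer, 1% DMSO. Fluorescence polarization read (ex 531/em 595 nm); IC50 fitted from percent inhibition and averaged over at least two independent experiments.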
As for `[2H]C([2H])([2H])C(C(=O)N1OCC[C@H]1c1ccc(F)cc1)(C([2H])([2H])[2H])C([2H])([2H])[2H]` [Compound 173, 1-[(3S)-3-(4-fluorophenyl)-1,2-oxazolidin-2-yl]-2,2-bis(^2H3)methyl(^2H3) propan-1-one], the IC50 was less than 1 µM.

In the case of `CC(C)(C)C(=O)N1OCC[C@H]1c1cncc(Cl)c1` [Compound 174, 1-[(3S)-3-(5-chloropyridin-3-yl)-1,2-oxazolidin-2-yl]-2,2-dimethylpropan-1-one], the IC50 is less than 1 µM.

As to `CC(C)(C)C(=O)N1OCC[C@H]1c1ccnc(C(F)F)c1` [Compound 175, 1-[(3S)-3-[2-(difluoromethyl)pyridin-4-yl]-1,2-oxazolidin-2-yl]-2,2-dimethylpropan-1-one], the IC50 was less than 1 µM.

In turn, `CC(C)(COC(F)(F)F)C(=O)N1OCC[C@H]1c1ccc(F)cc1` [Compound 176, 1-[(3S)-3-(4-fluorophenyl)-1,2-oxazolidin-2-yl]-2,2-dimethyl-3-(trifluoromethoxy) propan-1-one] displayed an IC50 of less than 1 µM.

In turn, `CC(C)(COC(F)(F)F)C(=O)N1OCC[C@H]1c1cncc(Cl)c1` [Compound 177, 1-[(3S)-3-(5-chloropyridin-3-yl)-1,2-oxazolidin-2-yl]-2,2-dimethyl-3-(trifluoromethoxy) propan-1-one] had an IC50 of less than 1 µM.

In turn, `CC(C)(Cn1cccn1)C(=O)N1OCC[C@H]1c1ccc(F)cc1` [Compound 178, 1-[(3S)-3-(4-fluorophenyl)-1,2-oxazolidin-2-yl]-2,2-dimethyl-3-(1H-pyrazol-1-yl)propan-1-one] had an IC50 of less than 1 µM.

In turn, `CC(C)(CC#N)C(=O)N1OCC[C@H]1c1ccc(C#N)cc1` [Compound 181, 4-[(3S)-2-(3-cyano-2,2-dimethylpropanoyl)-1,2-oxazolidin-3-yl]benzonitrile] yielded an IC50 of less than 1 µM.

`CC(C)(C#N)C(=O)N1OCC[C@H]1c1ccc(F)cc1` [Compound 182, 3-[(3S)-3-(4-fluorophenyl)-1,2-oxazolidin-2-yl]-2,2-dimethyl-3-oxopropanenitrile]: the IC50 was less than 1 µM.

Compound `N#Cc1ccc([C@@H]2CCON2C(=O)C2(C(F)F)CC2)cc1` [Compound 187, 4-[(3S)-2-[1-(difluoromethyl)cyclo-propanecarbonyl]-1,2-oxazolidin-3-yl]benzonitrile] had an IC50 of less than 1 µM.

The compound `CC(C)(C)C(=O)N1OCC[C@H]1c1cc[nH]n1` [Compound 190, 2,2-dimethyl-1-[(3S)-3-(1H-pyrazol-5-yl)-1,2-oxazolidin-2-yl]propan-1-one] displayed an IC50 of less than 1 µM.

The compound `C[C@@]1(C(=O)N2OCC[C@H]2c2ccc(F)cc2)CCC(=O)N1` [Compound 191, (5S)-5-[(3S)-3-(4-fluorophenyl)-1,2-oxazolidine-2-carbonyl]-5-methylpyrrolidin-2-one] gave an IC50 of less than 1 µM.

With `CC(C)(C)C(=O)N1OCC[C@H]1c1cc(C#N)ccn1` [Compound 192, 2-[(3S)-2-(2,2-dimethylpropanoyl)-1,2-oxazolidin-3-yl]pyridine-4-carbonitrile], the IC50 was less than 1 µM.

In the case of `CC(C)(C(=O)N1OCC[C@H]1c1ccc(F)cc1)C1CC1` [Compound 193, 2-cyclopropyl-1-[(3S)-3-(4-fluorophenyl)-1,2-oxazolidin-2-yl]-2-methylpropan-1-one], the IC50 is < 1 µM and 0.005 µM.

Regarding `CC(C)(C(=O)N1OCC[C@H]1c1ccc(F)cc1)S(C)(=O)=O` [Compound 194, 1-[(3S)-3-(4-fluorophenyl)-1,2-oxazolidin-2-yl]-2-methanesulfonyl-2-methylpropan-1-one], the IC50 is 1 to 10 µM.

On to `Cc1ncc([C@@H]2CCON2C(=O)C(C)(C)C(F)F)cc1F` [Compound 195, 3,3-difluoro-1-[(3S)-3-(5-fluoro-6-methylpyridin-3-yl)-1,2-oxazolidin-2-yl]-2*2-dimethylpropan-1-one], for which the IC50 is < 1 µM and 0.01 µM.

Take `Cc1ncc([C@@H]2CCON2C(=O)C(C)(C)CC#N)cc1F` [Compound 196, 4-[(3S)-3-(5-fluoro-6-methylpyridin-3-yl)-1,2-oxazolidin-2-yl]-3,3-dimethyl-4-oxobutanenitrile]: the half-inhibitory concentration (IC50) was < 1 µM and 0.009 µM.

As to `Cn1cc([C@@H]2CCON2C(=O)C(C)(C)C(F)F)cn1` [Compound 198, (S)-3,3-difluoro-2,2-dimethyl-1-(3-(1-methyl-1H-pyrazol-4-yl)isoxazolidin-2-yl)propan-1-one], the IC50 is < 1 µM and 0.051 µM.

Turning to `CC(C)(C(=O)N1OCC[C@H]1c1cncc(C#N)c1)C(F)F` [Compound 200, (S)-5-(2-(3,3-difluoro-2,2-dimethylpropanoyl)isoxazolidin-3-yl)nicotinonitrile], the IC50 was < 1 µM and 0.009 µM.

The compound `Cc1ccc([C@@H]2CCON2C(=O)C(C)(C)C(F)F)cn1` [Compound 202, 3,3-difluoro-2,2-dimethyl-1-[(3S)-3-(6-methylpyridin-3-yl)-1,2-oxazolidin-2-yl]propan-1-one] came in with an IC50 of less than 1 µM.

In turn, `CC(C)(C(=O)N1OCC[C@@H]1c1ccc(C#N)s1)C(F)F` [Compound 203, 5-[(3R)-2-(3,3-difluoro-2,2-dimethylpropanoyl)-1,2-oxazolidin-3-yl]thiophene-2-carbonitrile] gave an IC50 of less than 1 µM.

For the compound `CC(C)(C(=O)N1OCC[C@H]1c1ccc(C#N)s1)C(F)F` [Compound 204, 5-[(3S)-2-(3,3-difluoro-2,2-dimethylpropanoyl)-1,2-oxazolidin-3-yl]thiophene-2-carbonitrile], the IC50 was less than 1 µM.

`Cn1cc([C@@H]2CCON2C(=O)C(C)(C)C)cc1C#N` [Compound 205, 4-[(3S)-2-(2,2-dimethylpropanoyl)-1,2-oxazolidin-3-yl]-1-methyl-1 h-pyrrole-2-carbonitrile] gave an IC50 of less than 1 µM.

For `Cc1ncc([C@@H]2CCON2C(=O)C(C)(C)C)cc1C#N` [Compound 219], the half-inhibitory concentration (IC50) was less than 1 µM.

Consider `Cc1ncc([C@@H]2CCON2C(=O)C(C)(C)C(F)F)cc1C#N` [Compound 220, 5-[(3S)-2-(3,3-difluoro-2,2-dimethylpropanoyl)-1,2-oxazolidin-3-yl]-2-methylpyridine-3-carbonitrile], for which the IC50 is less than 1 µM.

Take `CC(C)(C(=O)N1OCC[C@H]1c1ccc(C(F)F)nc1)C(F)F` [Compound 221, 1-[(3S)-3-[6-(difluoromethyl)pyridin-3-yl]-1,2-oxazolidin-2-yl]-3,3-difluoro-2,2-dimethylpropan-1-one]: the IC50 was < 1 µM and 0.07 µM.

`CC(C)(C)C(=O)N1OCC[C@H]1c1cc(Br)cc(C#N)c1` [Compound 222, 3-bromo-5-[(3S)-2-(2,2-dimethylpropanoyl)-1,2-oxazolidin-3-yl]benzonitrile] gave an IC50 of less than 1 µM.

For `CC(C)(C)C(=O)N1OCC[C@H]1c1ccc([N+](=O)[O-])nc1` [Compound 223, 2,2-dimethyl-1-[(3S)-3-(6-nitropyridin-3-yl)-1,2-oxazolidin-2-yl]propan-1-one], the IC50 was less than 1 µM.

`CC(C)S(=O)(=O)N1OCC[C@H]1c1cncc(C#N)c1` [Compound 225, 5-[(3S)-2-(propane-2-sulfonyl)-1,2-oxazolidin-3-yl]pyridine-3-carbonitrile] came in with an IC50 of 1 to 10 µM.

`CC(C)(C(=O)N1OCC[C@H]1c1cc(F)cc(C#N)c1)C(F)F` [Compound 226, 3-[(3S)-2-(3,3-difluoro-2,2-dimethylpropanoyl)-1,2-oxazolidin-3-yl]-5-fluorobenzonitrile]: the half-maximal inhibitory concentration (IC50) is less than 1 µM.

`CC(C)(C(=O)N1OCC[C@H]1c1ccc(C(F)F)c(C#N)c1)C(F)F` [Compound 227, 5-[(3S)-2-(3,3-difluoro-2,2-dimethylpropanoyl)-1,2-oxazolidin-3-yl]-2-(difluoromethyl)benzonitrile]: the IC50 was less than 1 µM.

For `CC(C)(CC#N)C(=O)N1OCC[C@H]1c1ccc(C(F)F)c(C#N)c1` [Compound 228, 5-[(3S)-2-(3-cyano-2,2-dimethylpropanoyl)-1,2-oxazolidin-3-yl]-2-(difluoromethyl)benzonitrile], the IC50 was less than 1 µM.

In turn, `N#Cc1ccc([C@@H]2CCON2C(=O)C2(C(F)F)CCC2)cc1` [Compound 229, 4-[(3S)-2-[1-(difluoromethyl)cyclo-butanecarbonyl]-1,2-oxazolidin-3-yl]benzonitrile] registered an IC50 of less than 1 µM.

`N#Cc1ccc([C@@H]2CCON2C(=O)C23C4C5C6C4C2C6C53)cc1` (stereo partly drawn) [Compound 238, 4-[(3S)-2-(cubane-1-carbonyl)-1,2-oxazolidin-3-yl]benzonitrile] registered an IC50 of less than 1 µM.

Take `CC(C)(C(=O)N1OCC[C@H]1c1cccc(C#N)c1)C(F)F` [Compound 239, 3-[(3S)-2-(3,3-difluoro-2,2-dimethylpropanoyl)-1,2-oxazolidin-3-yl]benzonitrile]: the IC50 was less than 1 µM.

For `N#Cc1cncc([C@@H]2CCON2C(=O)C(C2CC2)(C2CC2)C2CC2)c1` [Compound 242, 5-[(3S)-2-(tricyclopropylacetyl)-1,2-oxazolidin-3-yl]pyridine-3-carbonitrile], the IC50 came out at 0.005 µM.

The IC50 is the concentration that gives 50% inhibition. Low values mean inhibition by little substance, high ones a need for much substance.

For the origin of these results see patent publication US10709692B2, “Isoxazolidine derived inhibitors of receptor interacting protein kinase 1 (RIPK1)” (Denali Therapeutics Inc., priority 2015, dated 2020).
